Laboratory results from patent EP0523873A1, “Non-substrate peptide inhibitors of farnesyl protein transferase” (MERCK & CO. INC., priority 1991, dated 1993).
Where two headings read alike, the source gives them in different places. Square brackets hold non-standard residues; d marks the D form. Peptide text beside a SMILES is read from it. Phe(4-F) = N[C@@H](Cc1ccc(F)cc1)C(=O)O

What was measured:
[1] = biological target: farnesyl-protein transferase (bovine brain) (Bos taurus, UniProt P29702+P49355); conditions: read-out: KM for FPP; 30°C, 50 mM HEPES, pH 7.5, 5 mM MgCl2, 5 mM dithiothreitol
Description: (§1) Polyisoprenylation of Ras- [³H]Farnesyldiphosphate (FPP) (20 Ci/mmol) was purchased from New England Nuclear. Farnesyl-protein transferase activity assays were carried out as 30°C unless noted otherwise. […] After thermally pre-equilibrating the assay mixture in the absence of enzyme, reactions were initiated by the addition of farnesyl-protein transferase and stopped at timed intervals by the addition of 1 M HCl in ethanol (1 mL). The quenched reactions were allowed to stand for 15 minutes (to complete the precipitation process). After adding 2 mL of 100% ethanol, the reactions were vacuum-filtered through Whatman GF/C filters. Filters were washed four times with 2 mL aliquots of 100% ethanol, mixed with scintillation fluid (10 mL) and then counted in a Beckman LS3801 scintillation counter.
(§2) For inhibition studies, assays were run as described above, except putative inhibitors were added at the concentrations indicated. IC₅₀ values were determined with both farnesyl-protein transferase substrates at their KM concentrations.
Farnesyl-protein transferase was prepared from bovine brain. All purification steps were performed at 4°C. Cerebral lobes from bovine brains were homogenized in lysis buffer containing 50 mM. Tris-Cl, pH 8.0, 1 mM EGTA, 1 mM MgCl₂, 5 mM dithiothreitol, 10 µg/mL aprotinin, 0.5 mM phenylmethyl sulfonyl fluoride (PMSF), 2 µg/mL anitpain and 2 µg/mL leupeptin. […]

[2] = tested on: partially pure bovine brain farnesyl-protein transferase; experiment: Tetrapeptides tested as farnesylation substrates with [3H]FPP (TLC / autoradiography); assay type: biochemical; conditions: peptide 200 µM, 0.5 µM [3H]-FPP, 30 minutes at 30°C
Source text: (§3) When a peptide was used as the acceptor substrate, there were two changes to the assay: (1) Ras protein was excluded and, (2) the reactions were stopped by the addition of one tenth volume of 0.5 M EDTA. A portion of the reaction mixture was spotted onto a TLC plate (silica gel 60 thin layer chromatography plates (20 cm x 20 cm, 0.25 mm layer thickness) [formula] were from E. Merck (Darrnstadt)) and eluted with either ethyl acetate:pyridine:acetic acid:water (10:5:1:3) or n-propanol:water (7:3) elution systems. After drying under vacuum, the plates were sprayed with En³Hance and exposed to X-ray film at -70°C.
CAAX tetrapeptides and other tetrapeptides including Cys-Xaa¹-Xaa²-Xaa³ were tested as farnesylation substrates using [³H]FPP and partially pure bovine brain farnesyl-protein transferase.
The indicated peptides at 200 µM were incubated with partially pure bovine farnesyl-protein transferase and 0.5 µM [3H]-FPP for 30 minutes at 30°C. Autoradiographic exposure time was overnight (15-20 hours).

[3] = biological target: T1, Farnesyl-protein transferase from bovine brain (partially purified) (Bos taurus, UniProt P29702+P49355); experiment: Inhibition of Ras farnesylation in vitro by tetrapeptides; assay type: biochemical
T1 construct: Farnesyl-protein transferase was prepared from bovine brain; from tissue; host or cells: bovine brain (cerebral lobes); Ras substrate expressed in E. coli
Description: as §1, §2
Farnesyl-protein transferase was prepared from bovine brain. All purification steps were performed at 4°C. Cerebral lobes from bovine brains were homogenized in lysis buffer containing 50 mM. Tris-Cl, pH 8.0, 1 mM EGTA, 1 mM MgCl₂, 5 mM dithiothreitol, 10 µg/mL aprotinin, 0.5 mM phenylmethyl sulfonyl fluoride (PMSF), 2 µg/mL anitpain and 2 µg/mL leupeptin. Cellular debris and membranes were removed by centrifugation (10,000 g for 20 minutes followed by 100,000 g for 30 minutes). The supernatant was loaded directly onto a column (30 cm x 20 cm²) [formula] of DEAE-Sephacel that had been equilibrated with lysis buffer. The column was washed with the same buffer and proteins were eluted with a linear gradient of NaCL (0-500 mM, 1 L + 1 L) [formula] in the same buffer. Fractions (20 mL) were collected and those containing farnesyl-protein transferase activity were pooled. Each pool was then applied to an ω-Aminooctyl agarose column (30 cm x 4.9 cm²) [formula] and eluted with a linear gradient of NaCl (0-500 mM, 500 mL + 500 mL) [formula] in lysis buffer. Fractions containing farnesylprotein transferase were pooled. For most assays further partial purifiation was achieved by HPLC using a Mono Q H.R. 10/10 column and eluting farnesyl-protein transferase activity with a 0-0.3 M NaCl gradient over 85 minutes at 2 ml/min.
Farnesyl-protein transferase from bovine brain was chromatographed on DEAE-Sephacel (Pharmacia, 0-0.8 M NaCl gradient elution), N-octyl agarose (Sigma, 0-0.6 M NaCl gradient elution), and a Mono Q HPLC column (Pharmacia, 0.0.3M NaCl gradient). […] Data presented in the Table 2 are the average of 2-5 determinations. Single capital letter amino acid abbreviations are used above.

[4] = tested on: farnesyl-protein transferase; experiment: Tetrapeptides tested as farnesylation substrates ([3H]FPP, TLC and autoradiography); assay type: biochemical; conditions: [³H]FPP, partially pure bovine brain farnesyl-protein transferase, TLC, autoradiography
Source text: as §3
CAAX tetrapeptides and other tetrapeptides including Cys-Xaa¹-Xaa²-Xaa³ were tested as farnesylation substrates using [³H]FPP and partially pure bovine brain farnesyl-protein transferase. […] Thin layer chromatography (TLC) conditions were developed which resolved the substrates farnesyl diphosphate (Rf = 0.06) [formula] and CVLS (Rf = 0.28) [formula] and product S-farnesyl-CVLS (Rf = 0.58) [formula] . These Rf values reflect TLC conditions using ethylacetate: pyridine:acetic acid:water (10:5:1:3) as the elutent. […] Control peptides having a Cys to Ser substitution were not substrates. […]

[5] = tested on: farnesyl-protein transferase; experiment: Mechanism of inhibition using homogenous, pure farnesyl-protein transferase; assay type: biochemical, bovine
Description: To prepare pure enzyme, the […], […], was covalently bound to Affigel-10 under anhydrous conditions as described by the manufacture (15 µmol peptide per 1 mL of Affigel-10). Unreacted resin was treated with ethanolamine. After multiple passes of ω-aminooctyl-agarose-column-purified protein over the peptide column, the column was washed and eluted as described by Reiss, et al., (1990) ibid, to recover farnesyl-protein transferase activity.
To further verify that Cys-Xaa¹-Xaa²-Xaa³ were interacting with the active site of farnesyl-protein transfer, CIFM (SEQ ID NO: 2) was evaluated for its mechanism of inhibition using homogenous, pure farnesyl-protein transferase.

[6] = tested on: farnesyl-protein transferase; conditions: earlier findings (Schaber et al., ibid); cited from earlier work
[7] = Ras-CVLS at 3.5 µM, 0.25 µM [3H]FPP (both substrates at KM), average of 2-5 determinations, read-out: IC50

Row | Farnesylation Substrate [2] | IC50 [3, 7] [nM] | Compound | other results
1 | - (- < 1% conversion) | 10 | CC[C@H](C)[C@H](NC(=O)[C@@H](N)CS)C(=O)N[C@@H](Cc1ccccc1)C(=O)N[C@@H](CCSC)C(=O)O [CIFM, Cys-Ile-Phe-Met] (H-CIFM-OH) | farnesylation substrate activity [4]: do not serve as effective substrates; mechanism of inhibition with respect to Ras protein substrate [5]: competitive inhibitor; mechanism of inhibition with respect to farnesyl diphosphate [5]: not a competitive inhibitor
2 | - (- < 1% conversion) | 23 | CC[C@H](C)[C@H](NC(=O)[C@@H](N)CS)C(=O)N[C@@H](Cc1ccccc1)C(=O)N[C@@H](CCC(N)=O)C(=O)O [CIFQ, Cys-Ile-Phe-Gln] (H-CIFQ-OH) | –
3 | - (- < 1% conversion) | – | CSCC[C@H](NC(=O)[C@H](Cc1ccccc1)NC(=O)[C@@H](NC(=O)[C@@H](N)CS)C(C)C)C(=O)O [CVFM, Cys-Val-Phe-Met] | –
4 | - (- < 1% conversion) | – | CC(C)C[C@H](NC(=O)[C@@H](NC(=O)[C@@H](N)CO)C(C)C)C(=O)N[C@@H](CO)C(=O)O [SVLS] (H-SVLS-OH) | –

Continued, compound first:

Row | Compound | Farnesylation Substrate [2] | IC50 [3, 7] [nM] | other results
5 | CC(C)=CCC/C(C)=C/CC/C(C)=C/CO[P@@](=O)(O)OP(=O)(O)O (stereo in doubt) [FPP, farnesyl diphosphate] | – | – | Km [1]: 250 nM
6 | CC[C@H](C)[C@H](NC(=O)[C@H](C)NC(=O)[C@@H](N)CS)C(=O)N[C@@H](CCSC)C(=O)O [CAIM] (H-CAIM-OH) | + (+ > 90% [3H] farnesyl diphosphate converted to [3H] farnesyl tetrapeptide) | 200 | –
7 | CC[C@H](C)[C@H](NC(=O)[C@H](C)NC(=O)[C@@H](N)CS)C(=O)N[C@@H](CO)C(=O)O [CAIS] (H-CAIS-OH) | + (+ > 90% [3H] farnesyl diphosphate converted to [3H] farnesyl tetrapeptide) | 1000 | –
8 | CC[C@H](C)[C@H](NC(=O)[C@@H](N)CS)C(=O)N[C@@H](Cc1ccc(F)cc1)C(=O)N[C@@H](CCSC)C(=O)O [CI(p-fluoro-F)M] (H-CI[Phe(4-F)]M-OH) | - (- < 1% conversion) | 10 | –
9 | CC[C@H](C)[C@H](NC(=O)[C@@H](NC(=O)[C@@H](N)CS)C(C)C)C(=O)N[C@@H](CCSC)C(=O)O [CVIM] (H-CVIM-OH) | + (+ > 90% [3H] farnesyl diphosphate converted to [3H] farnesyl tetrapeptide) | – | IC50 [3]: 100 nM
10 | CC[C@H](C)[C@H](NC(=O)[C@H](Cc1ccc(O)cc1)NC(=O)[C@@H](N)CS)C(=O)N[C@@H](CCSC)C(=O)O [CYIM] (H-CYIM-OH) | + (+ > 90% [3H] farnesyl diphosphate converted to [3H] farnesyl tetrapeptide) | 100 | –
11 | SSGCVLS [heptapeptide SSGCVLS, earlier found to serve as a substrate for isoprenylation] | – | – | substrate for isoprenylation [6]: served as a substrate for isoprenylation
